Results published in patent US10787446B2 (GENENTECH, INC., priority 2015, dated 2020).

These molecules were tested against T1, hNav1.7 and the β1 subunit (Homo sapiens, UniProt Q15858) (assay: Tritiated compound competitive binding to membranes from cells heterologously expressing hNav1.7 and the β1 subunit (LBA)). Details: competition with 100 pM [3H]compound, 18 h, room temperature; IC50 by 4 parameter logistic model.
T1 construct: expressed in transfected cells
Description: Example 235 Tritiated Compound Binding to Membranes Isolated from Cells that Heterologously Express hNav1.7 and the β1 Subunit
Preparation of membranes containing recombinantly expressed sodium channels: Frozen recombinant cell pellets were thawed on ice and diluted to 4 times the cell pellet weight with ice cold 50 mM Tris HCl, pH 7.4 buffer. The cell suspensions were homogenized on ice using a motorized glass dounce homogeniser. Homogenates were further diluted 8.4 times with ice cold 50 mM Tris HCl, pH 7.4 buffer and then centrifuged at 200×g at 4° C. for 15 min. The supernatants were collected and centrifuged at 10000×g at 4° C. for 50 min. The pellets were then re-suspended in 100 mM NaCl, 20 mM Tris HCl, pH 7.4 buffer containing 1% v/v protease inhibitors (Calbiochem) and re-homogenized on ice. The homogenized membranes were then processed through a syringe equipped with a 26 gauge needle. Protein concentrations were determined by Bradford Assay and the membranes were stored at −80° C.
Radioligand Binding Studies:
Saturation experiments. A competitive NaV1.7 inhibitor having a methyl group was tritiated. Three tritiums were incorporated in place of methyl hydrogens to generate [^3H]compound. Binding of this radioligand was performed in 5 mL borosilicate glass test tubes at room temperature. Binding was initiated by adding membranes to increasing concentrations of [^3H]compound in 100 mM NaCl, 20 mM Tris HCl, pH 7.4 buffer containing 0.01% w/v bovine serum albumin (BSA) for 18 h. […] After 18 h, the reactants were filtered through GF/C glass fiber filters presoaked in 0.5% w/v polyethylene imine. […] [^3H]compound bound to filters was quantified by liquid scintillation counting.
Competitive Binding Experiments:
Binding reactions were performed in 96-well polypropylene plates at room temperature for 18 h. In 360 μL, membranes were incubated with 100 pM [^3H]compound and increasing concentrations of Test Compound. […] Reactions were transferred and filtered through 96-well glass fiber/C filter plates presoaked with 0.5% polyethylene imine. The filtered reactions were washed 5 times with 200 μL ice cold buffer containing 0.25% BSA. Bound radioactivity was determined by liquid scintillation counting.
Data Analysis: For saturation experiments, non-specific binding was subtracted from total binding to provide specific binding and these values were recalculated in terms of pmol ligand bound per mg protein. Saturation curves were constructed and dissociation constants were calculated using the single site ligand binding model: Beq=(Bmax*X)/(X+Kd), where Beq is the amount of ligand bound at equilibrium, Bmax is the maximum receptor density, Kd is the dissociation constant for the ligand, and X is the free ligand concentration. For competition studies percent inhibition was determined and IC50 values were calculated using a 4 parameter logistic model (% inhibition=(A+((B−A)/(1+((x/C)^D)))) using XLfit, where A and B are the maximal and minimum inhibition respectively, C is the IC50 concentration and D is the (Hill) slope.

T1 sequence (Q15858 whole entry): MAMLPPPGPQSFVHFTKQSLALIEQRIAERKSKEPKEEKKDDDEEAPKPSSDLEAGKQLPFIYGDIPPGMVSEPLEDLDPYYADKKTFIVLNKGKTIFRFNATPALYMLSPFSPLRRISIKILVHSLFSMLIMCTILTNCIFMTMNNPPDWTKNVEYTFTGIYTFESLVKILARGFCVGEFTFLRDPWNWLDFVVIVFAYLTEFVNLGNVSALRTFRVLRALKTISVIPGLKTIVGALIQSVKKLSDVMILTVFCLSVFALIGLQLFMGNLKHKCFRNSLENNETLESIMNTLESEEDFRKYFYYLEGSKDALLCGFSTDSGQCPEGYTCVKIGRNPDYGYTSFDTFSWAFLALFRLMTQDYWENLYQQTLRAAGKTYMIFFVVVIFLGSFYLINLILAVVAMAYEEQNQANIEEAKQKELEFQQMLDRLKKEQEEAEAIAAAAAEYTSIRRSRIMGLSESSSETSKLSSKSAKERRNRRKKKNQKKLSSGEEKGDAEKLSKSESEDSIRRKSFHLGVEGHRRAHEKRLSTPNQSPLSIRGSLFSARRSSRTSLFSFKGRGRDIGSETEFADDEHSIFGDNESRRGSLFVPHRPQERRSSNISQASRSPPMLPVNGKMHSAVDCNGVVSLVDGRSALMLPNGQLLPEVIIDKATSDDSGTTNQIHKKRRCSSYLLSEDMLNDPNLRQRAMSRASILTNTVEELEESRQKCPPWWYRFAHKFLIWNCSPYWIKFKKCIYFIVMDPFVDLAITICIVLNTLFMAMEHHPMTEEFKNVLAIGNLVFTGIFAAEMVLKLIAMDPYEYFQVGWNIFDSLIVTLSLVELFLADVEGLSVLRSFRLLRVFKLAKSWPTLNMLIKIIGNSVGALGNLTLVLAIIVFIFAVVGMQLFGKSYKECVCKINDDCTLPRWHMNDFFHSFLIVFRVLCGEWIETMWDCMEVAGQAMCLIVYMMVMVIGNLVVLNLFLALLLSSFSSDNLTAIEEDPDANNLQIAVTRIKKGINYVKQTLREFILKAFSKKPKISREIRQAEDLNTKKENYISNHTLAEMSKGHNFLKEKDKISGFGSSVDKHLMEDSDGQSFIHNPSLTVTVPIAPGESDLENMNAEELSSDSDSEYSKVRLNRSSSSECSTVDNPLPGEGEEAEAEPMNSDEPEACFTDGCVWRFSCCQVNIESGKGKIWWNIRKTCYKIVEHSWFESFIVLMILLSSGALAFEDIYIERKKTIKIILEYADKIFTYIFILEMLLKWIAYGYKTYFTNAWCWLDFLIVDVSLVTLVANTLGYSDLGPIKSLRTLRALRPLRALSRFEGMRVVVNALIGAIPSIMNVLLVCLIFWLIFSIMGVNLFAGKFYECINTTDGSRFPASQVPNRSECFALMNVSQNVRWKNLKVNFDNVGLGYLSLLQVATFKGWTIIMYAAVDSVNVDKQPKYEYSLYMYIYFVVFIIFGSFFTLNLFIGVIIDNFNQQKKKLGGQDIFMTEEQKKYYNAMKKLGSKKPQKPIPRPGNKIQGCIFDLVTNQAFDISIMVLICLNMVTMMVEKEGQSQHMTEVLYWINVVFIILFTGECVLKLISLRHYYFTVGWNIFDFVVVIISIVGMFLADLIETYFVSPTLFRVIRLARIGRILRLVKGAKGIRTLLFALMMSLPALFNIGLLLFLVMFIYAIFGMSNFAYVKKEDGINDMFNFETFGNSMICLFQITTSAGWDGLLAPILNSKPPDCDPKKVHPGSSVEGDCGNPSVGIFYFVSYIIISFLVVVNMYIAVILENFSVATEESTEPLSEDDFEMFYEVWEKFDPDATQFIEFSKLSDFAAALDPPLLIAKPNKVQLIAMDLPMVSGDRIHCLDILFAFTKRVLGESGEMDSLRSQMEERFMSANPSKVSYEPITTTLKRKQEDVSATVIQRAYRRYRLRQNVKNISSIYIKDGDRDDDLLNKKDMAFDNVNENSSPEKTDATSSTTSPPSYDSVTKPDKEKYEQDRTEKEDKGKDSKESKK
T1 sequence (Q07699 19-218 partner): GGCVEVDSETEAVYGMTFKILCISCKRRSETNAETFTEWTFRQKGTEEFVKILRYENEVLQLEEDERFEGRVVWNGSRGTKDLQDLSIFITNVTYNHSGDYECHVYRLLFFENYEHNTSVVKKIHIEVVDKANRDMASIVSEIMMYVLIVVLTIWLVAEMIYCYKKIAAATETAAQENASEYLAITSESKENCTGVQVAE

Row | Nav1.7 (LBA) [µM] | SMILES
1 | 0.157 | O=S(=O)(Nc1ncns1)c1ccc2c(c1)CC[C@@H]2N1CCCC[C@H]1c1ccccc1 (racemic) [Example 67, 1-(2-phenylpiperidin-1-yl)-N-(1,2,4-thiadiazol-5-yl)-2,3-dihydro-1H-indene-5-sulfonamide]
2 | 0.00496 | O=S(=O)(Nc1ncns1)c1cc2c(cc1F)[C@@H](N1CCCC[C@@H]1c1ccc(F)cc1)CCO2 (racemic) [Example 86, (±)-(S)-6-fluoro-4-((R)-2-(4-fluorophenyl)piperidin-1-yl)-N-(1,2,4-thiadiazol-5-yl)chromane-7-sulfonamide]
3 | 0.00726 | O=S(=O)(Nc1ncns1)c1cc2c(cc1F)[C@@H](N1CCCC[C@H]1c1ccc(F)cc1)CCO2 (racemic) [Example 87, (±)-(S)-6-fluoro-4-((S)-2-(4-fluorophenyl)piperidin-1-yl)-N-(1,2,4-thiadiazol-5-yl)chromane-7-sulfonamide]
4 | 0.00168 | O=S(=O)(Nc1ncns1)c1cc2c(cc1F)C(N1CCC(C(F)(F)F)CC1c1ccc(F)cc1)CCO2 (racemic) [Example 88, 6-fluoro-4-(cis-2-(4-fluorophenyl)-4-(trifluoromethyl)piperidin-1-yl)-N-(1,2,4-thiadiazol-5-yl)chromane-7-sulfonamide]
5 | 0.00333 | O=S(=O)(Nc1nccs1)c1cc2c(cc1F)[C@H](N1CC[C@@H](C(F)(F)F)C[C@H]1c1ccc(F)cc1)CCO2 (racemic) [Example 93]
6 | 9.28 | CC1(C)CCN(Cc2cc(F)c(S(=O)(=O)Nc3ncns3)cc2F)[C@@H](c2ccccc2)C1 (single isomer, unassigned) [Example 3]
7 | 4.23 | C[C@H]1CCN(Cc2cc(F)c(S(=O)(=O)Nc3ncns3)cc2F)[C@@H](c2ccccc2)C1 (single isomer, unassigned) [Example 7]
8 | 1.26 | O=S(=O)(Nc1ncns1)c1cc(F)c(CN2CCCC[C@H]2c2ccnnc2)cc1F (single isomer, unassigned) [Example 11]
9 | 0.158 | Nc1cc([C@@H]2CCCCN2Cc2cc(F)c(S(=O)(=O)Nc3ncns3)cc2F)ccn1 (single isomer, unassigned) [Example 13]
10 | 9.36 | Cn1nccc1[C@@H]1CCCCN1Cc1cc(F)c(S(=O)(=O)Nc2ncns2)cc1F (single isomer, unassigned) [Example 15]
11 | 3.65 | C[C@H](c1cc(F)c(S(=O)(=O)Nc2ncns2)cc1F)N1CCCC[C@@H]1c1ccccc1 (single isomer, unassigned) [Example 16]
12 | 1.56 | C[C@@H]1CC[C@H](c2ccccc2)N(Cc2cc(F)c(S(=O)(=O)Nc3ncns3)cc2F)C1 (single isomer, unassigned) [Example 20]
13 | 0.118 | O=S(=O)(Nc1ncns1)c1cc(F)c(CN2CCCC[C@H]2c2ccn[nH]2)cc1F (single isomer, unassigned) [Example 27]
14 | 5.98 | O=S(=O)(Nc1ncns1)c1cc(F)c(CN2CC[C@@H](F)C[C@H]2c2ccccc2)cc1F (single isomer, unassigned) [Example 28]
15 | 0.157 | O=S(=O)(Nc1ncns1)c1cc(F)c(CN2CC[C@H](F)C[C@@H]2c2ccccc2)cc1F (single isomer, unassigned) [Example 29]
16 | 0.374 | O=S(=O)(Nc1ncns1)c1cc(F)c(CN2CC[C@H](F)C[C@H]2c2ccccc2)cc1F (single isomer, unassigned) [Example 31]
17 | 0.18 | O=S(=O)(Nc1ncns1)c1cc(F)c(CN2CCC(F)(F)C[C@H]2c2ccccc2)cc1F (single isomer, unassigned) [Example 32]
18 | 4.16 | O=S(=O)(Nc1ncns1)c1cc(F)c(CN2CCC(F)(F)C[C@@H]2c2ccccc2)cc1F (single isomer, unassigned) [Example 33]
19 | 0.0254 | O=S(=O)(Nc1ncns1)c1ccc2c(c1)OCC[C@@H]2N1CCCC[C@H]1c1ccccc1 (single isomer, unassigned) [Example 37]
20 | 0.203 | O=S(=O)(Nc1ncns1)c1ccc2c(c1)OCC[C@H]2N1CCCC[C@H]1c1ccccc1 (single isomer, unassigned) [Example 38]

The remaining lines, values behind:

Row | SMILES | Nav1.7 (LBA) [µM]
21 | CC[C@H]1CCCCN1[C@H](C)c1ccc(S(=O)(=O)Nc2ncns2)cc1Cl (racemic) [Example 58, (±)-3-chloro-4-((R)-1-((S)-2-ethylpiperidin-1-yl)ethyl)-N-(1,2,4-thiadiazol-5-yl)benzenesulfonamide] | 5.3
22 | O=S(=O)(Nc1ncccn1)c1cc2c(cc1F)C(N1CCC(C(F)(F)F)CC1c1ccc(F)cc1)CCO2 (racemic) [Example 96, (±)-(R)-6-fluoro-4-((cis)-2-(4-fluorophenyl)-4-(trifluoromethyl)piperidin-1-yl)-N-(pyrimidin-2-yl)chromane-7-sulfonamide] | 0.00994
23 | CC1(C)CCN(Cc2cc(F)c(S(=O)(=O)Nc3ncns3)cc2F)[C@H](c2ccccc2)C1 (single isomer, unassigned) [Example 2] | 0.288
24 | C[C@@H]1CCN(Cc2cc(F)c(S(=O)(=O)Nc3ncns3)cc2F)[C@H](c2ccccc2)C1 (single isomer, unassigned) [Example 6] | 0.17
25 | Cn1nccc1[C@H]1CCCCN1Cc1cc(F)c(S(=O)(=O)Nc2ncns2)cc1F (single isomer, unassigned) [Example 14] | 0.22
26 | C[C@H](c1cc(F)c(S(=O)(=O)Nc2ncns2)cc1F)N1CCCC[C@H]1c1ccccc1 (single isomer, unassigned) [Example 18] | 1.38
27 | C[C@H]1CC[C@@H](c2ccccc2)N(Cc2cc(F)c(S(=O)(=O)Nc3ncns3)cc2F)C1 (single isomer, unassigned) [Example 21] | 0.672
28 | C[C@H]1CCCN(Cc2cc(F)c(S(=O)(=O)Nc3ncns3)cc2F)[C@H]1c1ccccc1 (single isomer, unassigned) [Example 22] | 1.55
29 | C[C@@H]1CCCN(Cc2cc(F)c(S(=O)(=O)Nc3ncns3)cc2F)[C@@H]1c1ccccc1 (single isomer, unassigned) [Example 23] | 0.366
30 | O=S(=O)(Nc1ncns1)c1cc(F)c(CN2CCCC[C@H]2c2cn[nH]c2)cc1F (single isomer, unassigned) [Example 25] | 2.24
31 | O=S(=O)(Nc1ncns1)c1cc(F)c(CN2CC[C@@H](F)C[C@@H]2c2ccccc2)cc1F (single isomer, unassigned) [Example 30] | 1.71
32 | O=S(=O)(Nc1ncns1)c1cc(F)c(CN2CC[C@H](OC(F)(F)F)C[C@@H]2c2ccccc2)cc1F (single isomer, unassigned) [Example 35] | 0.0786
33 | O=S(=O)(Nc1ncns1)c1cc(F)c(CN2CC[C@H](OC(F)(F)F)C[C@H]2c2ccccc2)cc1F (single isomer, unassigned) [Example 36] | 0.538
34 | O=S(=O)(Nc1ncns1)c1ccc2c(c1)OCC[C@@H]2N1CCC[C@H]1c1ccccc1 (single isomer, unassigned) [Example 39] | 0.274
35 | O=S(=O)(Nc1ncns1)c1ccc2c(c1)OCC[C@H]2N1CCC[C@H]1c1ccccc1 (single isomer, unassigned) [Example 40] | 0.798
